These are literature values, as cited in patent US9371263B2, “Protective effects of curcumin against hemorrhagic stroke injury” (Augusta University Research Institute, Inc., priority 2013, dated 2016).

The conditions of this data set: humans, oral administration.

Take `COc1cc(/C=C/C(=O)CC(=O)/C=C/c2ccc(O)c(OC)c2)ccc1O` [curcumin, diferuloylmethane]: the systemic bioavailability entry is “relatively low”.
